Laboratory results as given in PMC8507260, “A2E-induced inflammation and angiogenesis in RPE cells in vitro are modulated by PPAR-α, -β/δ, -γ, and RXR antagonists and by norbixin” (Aging (Albany NY), 2021).

Experiments:
[1] = tested on: NF-κB; experiment: NF-κB transactivation, luciferase reporter in porcine RPE cells; type: cell-based; details: A2E 20 μM, T007907 10 μM
Protocol: (§1) Pig eyes were obtained from a local slaughterhouse and transported to the laboratory in ice-cold Ringer solution. After removal of the anterior segment of the eye, the vitreous and neural retina was separated from the RPE and removed. The eyecup was washed twice with phosphate buffer saline (PBS), filled with trypsin (0.25% in PBS) and incubated at 37°C for 1.5 h. RPE cells were harvested by gently pipetting, centrifuged to remove trypsin and re-suspended in Dulbecco’s Modified Eagle Medium (DMEM) supplemented with 20% (v/v) foetal-calf serum (DMEM20%FCS) and 0.1% gentamycin. Cells were seeded into 60 mm diameter Petri dishes, cultured in an atmosphere of 5% CO2/95% air at 37°C, and supplied with fresh medium after 24 hours and 4 days in vitro. For experiments aimed at measuring mRNA or protein expression in RPE, cells were trypsinized after one week in culture and transferred to 24-well or 6-well plates at a density of 1.5 × 10^5 cells/cm^2 in DMEM2%FCS. Norbixin or agonists were added to the medium 24 h after seeding, and antagonists were added to the medium 24 h later. A2E treatment was performed during 19 h before cellular sample preparation. All the drugs used in these experiments were prepared as stock solutions in DMSO.
(§2) After one week in culture, cells were trypsinized and transferred to a 96-well plate at a density of 6 × 10^4 cells/cm^2 in DMEM2%FCS. The next day, cells were transfected using the Cignal Reporter Assay Kits for PPAR, RXR, AP-1 and NF-κB, according to the manufacturer’s specifications. To measure the specific activation of PPAR isoforms, cells were also co-transfected with PPAR-α, PPAR-β/δ or PPAR-γ expression vectors. Transfection was performed with Lipofectamine and Plus Reagent in serum-free medium. 3 h after the transfection, the medium was replaced and treatments with the molecules to assay were performed. Luciferase activity was measured the next day using the Dual-Luciferase Reporter Assay System. The measurements were performed with a luminometer (Infinite M1000 from Tecan, Mannedorf, Switzerland). Firefly: Renilla activity ratios were calculated for each condition and ratios from transcription factor-responsive reporter transfections were divided by ratios from negative control transfections to obtain relative luciferase unit, as described by the manufacturer. At least 3 independent transfections were performed in triplicate for each condition.

[2] = tested on: PPAR; experiment: Endogenous PPAR transactivation, luciferase reporter in primary porcine RPE cells; type: cell-based
Protocol: as §1, §2

[3] = tested on: IL-8; experiment: IL-8 mRNA expression by quantitative RT-PCR in porcine RPE cells; type: cell-based
Protocol: as §1
Total RNA was extracted using the NucleoSpin® RNA kit according to manufacturer’s instructions. RT of 500 ng of RNA was performed using the SuperScript III Reverse Transcriptase following the manufacturer’s instructions. Five ng of cDNA were amplified using the SYBR GREEN real-time PCR method. PCR primers for target genes and housekeeping gene GAPDH were designed using Primer3Plus Bioinformatic software (Table 2). The RT-PCR using the StepOne Plus (Life Technologies, Carlsbad, CA, USA) consisted of incubation at 50°C for 5 min followed by 40 cycles of 95°C for 15 s and of 60°C for 1 min. The reaction was completed by a melt curve stage at 95°C for 15 s, 60°C for 1 min, 95°C for 15 s and a final step at 60°C for 15 s. The relative mRNA expression was calculated using the comparative threshold method (Ct-method) with GAPDH for normalization. All experimental conditions were processed in triplicate and each experiment was done at least 3 times.

[4] = tested on: PPAR-β/δ; experiment: Transactivation of over-expressed PPAR-β/δ, luciferase reporter in porcine RPE cells; type: cell-based, pig; details: for transactivation of over-expressed PPAR-β/δ by the compound alone: vs DMSO control, A2E 20 μM, NBX increasing concentrations
Protocol: (§3) Then the effects of A2E on the endogenous PPAR transactivation in porcine RPE cells were investigated by means of a luciferase assay. […] The level of transactivation of PPAR-α, -β/δ, or -γ isoforms by A2E was determined by co-transfection of porcine RPE cells with a plasmid expressing each of the full-length PPAR isoforms and a plasmid expressing luciferase under the control of the PPAR response element. […] All usual chemicals, primers, and HX531 were from Sigma (St. Louis, MO, USA). Reagents for cell culture, transfection and quantitative RT-PCR were from Thermo Fisher Scientific (Waltham, MA, USA). RNA extraction NucleoSpin® RNA kit was from Macherey Nagel (Düren, Germany). ECL prime and PVDF membrane were from Amersham GE Healthcare (Buckinghamshire, UK). Primary antibodies against the following proteins were used: GAPDH (Santa Cruz Biotechnology, Inc, Dallas, TX, USA); pAKT, AKT, pERK and ERK (Cell Signaling, Danvers, MA, USA). Secondary antibodies were from Jackson ImmunoResearch (Cambridgeshire, UK). […] Cignal Pathway Reporter Assay Kits were from QIAGEN (Frederick, MD, USA). The Dual-Luciferase Reporter Assay System was purchased from Promega (Madison, WI, USA). pcDNA 3.1 (+)-PPARα and pcDNA 3.1 (+)-PPARβ/δ (pig sequence) were purchased from Genscript (Piscataway, NJ, USA). pCMV6-XL4-PPARγ (human sequence) was purchased from Origene (Rockville, MD, USA).
as §2

[5] = biological target: T1, PPAR-γ (Homo sapiens, UniProt P37231); experiment: Transactivation of over-expressed PPAR-γ, luciferase reporter in porcine RPE cells; type: cell-based, pig; parameters: a plasmid expressing each of the full-length PPAR isoforms; host or cells: primary porcine RPE cells; details: for inhibition of PPAR-γ transactivation induced by TGZ: NBX 20 μM; for transactivation of over-expressed PPAR-γ by the compound alone: vs DMSO control, A2E 20 μM, NBX increasing concentrations
T1 sequence (P37231 1-505): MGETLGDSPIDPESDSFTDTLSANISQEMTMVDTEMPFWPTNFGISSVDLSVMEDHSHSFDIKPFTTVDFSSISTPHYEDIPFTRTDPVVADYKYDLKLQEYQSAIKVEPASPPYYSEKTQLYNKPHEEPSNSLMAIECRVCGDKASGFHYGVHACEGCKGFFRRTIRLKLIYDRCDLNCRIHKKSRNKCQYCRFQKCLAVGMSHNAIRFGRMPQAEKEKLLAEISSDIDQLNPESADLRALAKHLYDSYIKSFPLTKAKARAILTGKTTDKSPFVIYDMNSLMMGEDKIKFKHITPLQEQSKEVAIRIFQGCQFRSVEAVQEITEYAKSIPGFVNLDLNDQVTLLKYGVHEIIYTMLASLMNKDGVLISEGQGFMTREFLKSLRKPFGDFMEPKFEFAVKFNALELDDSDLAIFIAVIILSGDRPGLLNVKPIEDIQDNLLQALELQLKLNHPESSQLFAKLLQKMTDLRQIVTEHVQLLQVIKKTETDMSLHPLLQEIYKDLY
Protocol: as §3, §2

inhibition of PPAR-γ transactivation induced by TGZ ([5]; 1 μM of TGZ) | effect on over-expressed PPAR-γ transactivation induced by A2E ([5]; A2E 20 μM + NBX 20 μM) | inhibition of PPAR-γ transactivation induced by TGZ ([5]; TGZ 10 μM) | Structure (SMILES) | inhibition of NF-κB transactivation induced by A2E ([1]; NBX 20 μM, HX531 5 μM) [%] | inhibition of endogenous PPAR transactivation induced by A2E ([2]; A2E 20 μM, NBX 20 μM, HX531 5 μM (HX531 effect not significant)) [%] | effect of the compound alone on endogenous PPAR transactivation ([2]; NBX 20 μM, no A2E) | inhibition of IL-8 mRNA expression induced by A2E ([3]; NBX 20 μM + A2E 30 μM) | effect on over-expressed PPAR-β/δ transactivation induced by A2E ([4]; A2E 20 μM + NBX 20 μM) | inhibition of PPAR-β/δ transactivation induced by GW0742 ([4]; GW0742 at 1 nM, NBX 20 μM) | transactivation of over-expressed PPAR-β/δ by the compound alone [4] | transactivation of over-expressed PPAR-γ by the compound alone [5] | effect of the compound alone on NF-κB transactivation ([1]; vs DMSO control) | minimal required concentration to transactivate all PPARs (endogenous) ([2]; dose-response, porcine RPE cells) [µM] | effect of the compound alone on IL-8 mRNA expression ([3]; vs DMSO control)
partially inhibited | fully abolished | this effect was lost | CC(/C=C/C=C(C)/C=C/C(=O)O)=C\C=C\C=C(C)\C=C\C=C(C)\C=C\C(=O)O (stereo in doubt) [norbixin, 9’-cis-norbixin] | 73 | 52 | did not inhibit | approximately 23 fold | fully abolished | did not inhibit significantly | did not demonstrate any transactivation activity | did not demonstrate any transactivation activity | – | – | –
– | – | – | CC(C=CC1=C(C)CCCC1(C)C)=CC=CC(C)=Cc1cc(C=CC=C(C)C=CC2=C(C)CCCC2(C)C)cc[n+]1CCO [A2E, N-retinylidene-N-retinylethanolamine] | – | – | – | – | – | – | induced the transactivation | induced the transactivation | induces the transactivation | 20 | induces the expression
